Data: ChEMBL document CHEMBL1201862, “PubChem BioAssay data set” (2004)
Calls of active or inactive are those of the source.

Tests used:
Bcl-2-like protein 1 = Bcl-2-like protein 1 (Homo sapiens, UniProt Q07817); assay: blockers of BCLXL peptide binding – biochemical, fluorescence polarization, 1536-well, selectivity assay for MCL1 inhibitor project, dose response (AID 2218)
[1] = biological target: T1, Voltage-gated N-type calcium channel alpha-1B subunit/Amyloid beta A4 precursor protein-binding family A member 1 (Homo sapiens, UniProt Q00975+Q02410); type: protein assay
[2] = biological target: T2, Dual specificity protein phosphatase 3 (Homo sapiens, UniProt P51452); assay: VHR1 phosphatase inhibitors, biochemical (AID 1878)
[3] = biological target: Induced myeloid leukemia cell differentiation protein Mcl-1 (Homo sapiens, UniProt Q07820); assay: blockers of MCL1 binding to BIM peptide – biochemical, fluorescence polarization, BIM-BH3 peptide, 1536-well, dose response (AID 2217)
Genome polyprotein = Genome polyprotein (dengue virus type 2, UniProt P29990); assay: flavivirus cap methylation enzyme inhibition – biochemical, confirmation dose response, primary screen (AID 588689); type: functional
Beta-galactosidase = Beta-galactosidase (Escherichia coli, UniProt Q8VNN2); assay: detection-enzyme interference by beta-gal modulators – biochemical, E. coli enzyme, set 3, artefact control for CCR6 antagonist project, dose response (AID 504712); type: functional
[4] = biological target: T3, Replicative DNA helicase DnaB (Mycobacterium tuberculosis, UniProt P9WMR3); assay: DnaB intein splicing inhibitors, dose response, biochemical, cell-free fluorescence (AID 449749); type: functional
T3 sequence (P9WMR3 whole entry): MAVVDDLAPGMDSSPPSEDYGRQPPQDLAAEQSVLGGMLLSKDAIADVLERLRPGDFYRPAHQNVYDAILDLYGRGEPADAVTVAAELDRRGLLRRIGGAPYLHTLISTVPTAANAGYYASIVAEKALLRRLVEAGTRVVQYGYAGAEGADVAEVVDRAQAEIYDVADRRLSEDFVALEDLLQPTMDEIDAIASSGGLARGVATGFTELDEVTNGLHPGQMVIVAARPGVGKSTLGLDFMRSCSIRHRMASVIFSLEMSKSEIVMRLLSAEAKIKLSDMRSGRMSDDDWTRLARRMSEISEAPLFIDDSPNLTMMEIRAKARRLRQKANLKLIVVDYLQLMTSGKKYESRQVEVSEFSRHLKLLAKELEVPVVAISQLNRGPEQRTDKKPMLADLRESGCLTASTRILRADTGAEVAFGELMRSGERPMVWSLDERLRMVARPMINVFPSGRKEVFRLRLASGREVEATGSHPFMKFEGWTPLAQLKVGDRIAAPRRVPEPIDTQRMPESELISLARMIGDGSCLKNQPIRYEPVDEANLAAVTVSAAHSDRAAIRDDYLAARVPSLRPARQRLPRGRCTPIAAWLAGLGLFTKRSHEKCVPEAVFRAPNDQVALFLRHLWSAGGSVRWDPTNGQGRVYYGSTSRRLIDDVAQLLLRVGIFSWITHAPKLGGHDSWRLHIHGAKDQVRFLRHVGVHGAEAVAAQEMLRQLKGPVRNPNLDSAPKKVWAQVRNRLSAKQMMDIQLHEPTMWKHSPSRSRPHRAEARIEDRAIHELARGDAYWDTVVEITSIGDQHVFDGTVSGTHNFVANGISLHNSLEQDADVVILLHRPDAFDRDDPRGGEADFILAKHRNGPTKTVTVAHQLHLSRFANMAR

[5] = biological target: T2, Dual specificity protein phosphatase 3; assay: VHR1 phosphatase inhibitors, primary screen, biochemical, absorbance, uHTS (AID 1654)
Protein RecA = biological target: T4, Protein RecA (Mycobacterium tuberculosis, UniProt P9WHJ3); assay: Fluorescence Cell-Free Homogeneous Dose Retest to Identify Inhibitors of RecA-Intein Splicing Activity. [Related pubchem assays (depositor defined):AID2097, AID2223, AID489010, AID492950]; type: functional
T4 sequence (P9WHJ3 whole entry): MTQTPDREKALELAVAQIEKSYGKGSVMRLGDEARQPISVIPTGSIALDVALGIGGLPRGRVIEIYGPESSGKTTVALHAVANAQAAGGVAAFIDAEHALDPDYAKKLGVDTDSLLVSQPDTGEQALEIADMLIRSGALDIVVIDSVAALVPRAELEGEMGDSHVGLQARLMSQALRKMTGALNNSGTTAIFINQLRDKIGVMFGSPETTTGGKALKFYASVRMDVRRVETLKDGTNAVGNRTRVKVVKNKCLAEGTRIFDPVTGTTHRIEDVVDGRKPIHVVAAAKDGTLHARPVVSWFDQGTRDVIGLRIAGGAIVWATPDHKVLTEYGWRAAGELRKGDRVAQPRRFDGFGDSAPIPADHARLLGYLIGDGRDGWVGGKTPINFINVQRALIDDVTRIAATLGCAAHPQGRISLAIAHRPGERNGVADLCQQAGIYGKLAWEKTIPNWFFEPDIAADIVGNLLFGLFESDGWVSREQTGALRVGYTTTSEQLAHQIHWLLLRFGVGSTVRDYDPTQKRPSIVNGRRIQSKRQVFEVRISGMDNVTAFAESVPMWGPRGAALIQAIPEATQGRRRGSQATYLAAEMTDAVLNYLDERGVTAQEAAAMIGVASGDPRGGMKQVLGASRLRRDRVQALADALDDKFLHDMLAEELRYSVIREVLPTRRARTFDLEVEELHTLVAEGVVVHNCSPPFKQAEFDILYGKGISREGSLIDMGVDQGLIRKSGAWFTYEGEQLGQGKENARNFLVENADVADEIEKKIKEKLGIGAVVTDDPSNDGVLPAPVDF

[6] = biological target: T1, Voltage-gated N-type calcium channel alpha-1B subunit/Amyloid beta A4 precursor protein-binding family A member 1; type: protein assay; remark: listed apart in the source
[7] = biological target: Dual specificity protein phosphatase 6 (Rattus norvegicus, UniProt Q64346); assay: inhibition of rat DUSP6 enzyme activity – biochemical, in vitro, primary screen (AID 425)
[8] = biological target: T5, RNA-binding protein pos-1 (Caenorhabditis elegans, UniProt G5EF15); assay: disruptors of C. elegans POS-1 RNA interaction – biochemical, fluorescence polarization, dose response (AID 1964);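 further: purified POS-1 fused to maltose binding protein made in E. coli; potency of compounds blocking POS-1 binding to fluorescent RNA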
T5 sequence (G5EF15 whole entry): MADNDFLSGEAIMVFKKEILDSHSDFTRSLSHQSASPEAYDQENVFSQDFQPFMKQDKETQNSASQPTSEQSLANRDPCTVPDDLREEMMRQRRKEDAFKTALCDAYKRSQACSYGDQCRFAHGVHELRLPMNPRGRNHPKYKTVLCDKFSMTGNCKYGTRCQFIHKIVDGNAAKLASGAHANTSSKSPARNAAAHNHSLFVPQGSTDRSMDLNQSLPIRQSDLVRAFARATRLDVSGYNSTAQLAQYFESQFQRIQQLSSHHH

[9] = biological target: FAD-linked sulfhydryl oxidase ALR (Homo sapiens, UniProt P55789); assay: ALR-catalysed DTT oxidation blockers – biochemical, H2O2 detection, luminescence, cherry-pick, dose response (AID 493248)
[10] = biological target: Lysine-specific demethylase 4C (Homo sapiens, UniProt Q9H3R0); assay: inhibition of JMJD2C H3K9me3 demethylation – biochemical, DELFIA europium, cherry-picked samples, dose response (AID 488835); type: functional
[11] = biological target: T6, Zinc finger protein mex-5 (Caenorhabditis elegans, UniProt Q9XUB2); assay: potency of MEX-5 RNA-binding blockers – biochemical, C. elegans, fluorescence polarization, dose response (AID 1960)
T6 sequence (Q9XUB2 whole entry): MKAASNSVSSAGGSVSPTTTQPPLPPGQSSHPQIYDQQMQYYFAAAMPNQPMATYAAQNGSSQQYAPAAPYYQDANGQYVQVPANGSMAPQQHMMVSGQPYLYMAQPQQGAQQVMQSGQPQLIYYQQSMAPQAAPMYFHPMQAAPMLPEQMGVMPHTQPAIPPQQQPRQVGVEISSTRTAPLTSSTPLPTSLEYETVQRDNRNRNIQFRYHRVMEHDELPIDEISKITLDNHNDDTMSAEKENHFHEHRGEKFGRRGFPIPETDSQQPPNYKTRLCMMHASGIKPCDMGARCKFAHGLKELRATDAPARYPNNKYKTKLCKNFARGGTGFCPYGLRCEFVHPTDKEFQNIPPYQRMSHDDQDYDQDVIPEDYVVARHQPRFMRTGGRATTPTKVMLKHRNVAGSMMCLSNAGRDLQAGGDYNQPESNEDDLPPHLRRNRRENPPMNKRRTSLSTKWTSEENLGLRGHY

[12] = biological target: Sphingosine 1-phosphate receptor 2 (Homo sapiens, UniProt O95136); assay: Late stage counterscreen assay for S1P4 antagonists: Fluorescence dose response cell-based screening assay for antagonists of the Sphingosine 1-Phosphate Receptor 2 (S1P2). [Related pubchem assays (depositor defined):AID1510, AID1524, AID1692, AID1853, AID2332, AID489009, AID489017]; type: functional
[13] = biological target: Sphingosine 1-phosphate receptor 1 (Homo sapiens, UniProt P21453); assay: Late stage counterscreen assay for S1P4 antagonists: Fluorescence dose response cell-based screening assay for antagonists of the Sphingosine 1-Phosphate Receptor 1 (S1P1). [Related pubchem assays (depositor defined):AID1510, AID1524, AID1692, AID1853, AID2332, AID489009, AID489017]; type: functional
[14] = biological target: Sphingosine 1-phosphate receptor 5 (Homo sapiens, UniProt Q9H228); assay: Late stage counterscreen assay for S1P4 antagonists: Fluorescence dose response cell-based screening assay for antagonists of the Sphingosine 1-Phosphate Receptor 5 (S1P5). [Related pubchem assays (depositor defined):AID1510, AID1524, AID1692, AID1853, AID2332, AID489009, AID489017]; type: functional
[15] = biological target: Sphingosine 1-phosphate receptor 3 (Homo sapiens, UniProt Q99500); assay: Late stage counterscreen assay for S1P4 antagonists: Fluorescence dose response cell-based screening assay for antagonists of the Sphingosine 1-Phosphate Receptor 3 (S1P3). [Related pubchem assays (depositor defined):AID1510, AID1524, AID1692, AID1853, AID2332, AID489009, AID489017]; type: functional
[16] = biological target: T7, Sphingosine 1-phosphate receptor 4 (Homo sapiens, UniProt O95977); assay: potency of S1P4 blockers – cell-based, fluorescence, synthesized analogues, late-stage follow-up (AID 2346); type: functional
T7 sequence (O95977 whole entry): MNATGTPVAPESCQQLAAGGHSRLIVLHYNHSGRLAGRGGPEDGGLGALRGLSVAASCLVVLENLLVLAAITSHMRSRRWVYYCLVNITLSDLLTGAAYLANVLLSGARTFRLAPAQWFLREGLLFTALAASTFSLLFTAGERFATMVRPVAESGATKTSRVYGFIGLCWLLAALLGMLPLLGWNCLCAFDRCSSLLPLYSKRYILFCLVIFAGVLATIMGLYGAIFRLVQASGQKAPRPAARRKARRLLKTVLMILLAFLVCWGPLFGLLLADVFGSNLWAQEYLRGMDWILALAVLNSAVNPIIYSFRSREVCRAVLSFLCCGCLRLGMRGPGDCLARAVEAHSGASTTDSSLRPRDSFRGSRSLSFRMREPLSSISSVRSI

HEK293 [17] = assay: cells; type: functional, cell-based; settings: Homo sapiens
[18] = loss of viability in HepG2 cells – cell-based, CellTiter-Glo, cherry-picked, cytotoxicity control for Shn3 inhibitor project, dose response (AID 624134); type: functional
HEK293 [19] = assay: cells; settings: Homo sapiens
[20] = reduction of Shn3 3'UTR-driven luciferase in osteoblasts – cell-based, Clone20 osteoblasts, firefly luciferase, cherry-picked, dose response (AID 624132); type: functional;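 further: firefly luciferase luminescence from reporter carrying the Shn3 3'UTR in osteoblasts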
HEK293 [21] = assay: cells; type: functional, cell-based; settings: Homo sapiens; remark: listed apart in the source
HEK293 [22] = assay: inhibition of NOD1-driven NF-kB reporter – cell-based, luminescence, uHTS, primary screen (AID 1578); type: functional; settings: Homo sapiens
INS1 = assay: INS-1E survival protection against cytokine death – cell-based, luminescence, retest, dose response (AID 449756); type: functional; settings: Rattus norvegicus;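 further: cell death triggered by IL-1 beta plus TNF-alpha plus IFN-gamma mixture; protective hits raise ATP signal compared with cytokine alone wells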
HEK293 [23] = assay: NOD2 signaling inhibitors in MDP-stimulated cells, cell-based, uHTS, luminescence (AID 2001); type: functional; settings: Homo sapiens
[24] = non-specific 3'UTR reporter inhibition in Clone20-Shn3RL – cell-based, Renilla luciferase, cherry-picked, counter-screen for Shn3 inhibitor project, dose response (AID 624133); type: functional
[25] = biological target: Nucleotide-binding oligomerization domain-containing protein 1 (Homo sapiens, UniProt Q9Y239); assay: blockers of NOD1 pathway activity – revised, SAR follow-up (AID 2333); type: functional

T2 sequence (P51452 whole entry): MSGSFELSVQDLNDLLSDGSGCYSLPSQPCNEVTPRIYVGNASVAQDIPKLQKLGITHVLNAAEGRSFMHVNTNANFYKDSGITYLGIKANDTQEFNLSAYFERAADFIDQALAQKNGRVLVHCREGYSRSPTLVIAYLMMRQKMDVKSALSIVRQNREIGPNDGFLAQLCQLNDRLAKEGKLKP
T1 sequence (Q00975 whole entry): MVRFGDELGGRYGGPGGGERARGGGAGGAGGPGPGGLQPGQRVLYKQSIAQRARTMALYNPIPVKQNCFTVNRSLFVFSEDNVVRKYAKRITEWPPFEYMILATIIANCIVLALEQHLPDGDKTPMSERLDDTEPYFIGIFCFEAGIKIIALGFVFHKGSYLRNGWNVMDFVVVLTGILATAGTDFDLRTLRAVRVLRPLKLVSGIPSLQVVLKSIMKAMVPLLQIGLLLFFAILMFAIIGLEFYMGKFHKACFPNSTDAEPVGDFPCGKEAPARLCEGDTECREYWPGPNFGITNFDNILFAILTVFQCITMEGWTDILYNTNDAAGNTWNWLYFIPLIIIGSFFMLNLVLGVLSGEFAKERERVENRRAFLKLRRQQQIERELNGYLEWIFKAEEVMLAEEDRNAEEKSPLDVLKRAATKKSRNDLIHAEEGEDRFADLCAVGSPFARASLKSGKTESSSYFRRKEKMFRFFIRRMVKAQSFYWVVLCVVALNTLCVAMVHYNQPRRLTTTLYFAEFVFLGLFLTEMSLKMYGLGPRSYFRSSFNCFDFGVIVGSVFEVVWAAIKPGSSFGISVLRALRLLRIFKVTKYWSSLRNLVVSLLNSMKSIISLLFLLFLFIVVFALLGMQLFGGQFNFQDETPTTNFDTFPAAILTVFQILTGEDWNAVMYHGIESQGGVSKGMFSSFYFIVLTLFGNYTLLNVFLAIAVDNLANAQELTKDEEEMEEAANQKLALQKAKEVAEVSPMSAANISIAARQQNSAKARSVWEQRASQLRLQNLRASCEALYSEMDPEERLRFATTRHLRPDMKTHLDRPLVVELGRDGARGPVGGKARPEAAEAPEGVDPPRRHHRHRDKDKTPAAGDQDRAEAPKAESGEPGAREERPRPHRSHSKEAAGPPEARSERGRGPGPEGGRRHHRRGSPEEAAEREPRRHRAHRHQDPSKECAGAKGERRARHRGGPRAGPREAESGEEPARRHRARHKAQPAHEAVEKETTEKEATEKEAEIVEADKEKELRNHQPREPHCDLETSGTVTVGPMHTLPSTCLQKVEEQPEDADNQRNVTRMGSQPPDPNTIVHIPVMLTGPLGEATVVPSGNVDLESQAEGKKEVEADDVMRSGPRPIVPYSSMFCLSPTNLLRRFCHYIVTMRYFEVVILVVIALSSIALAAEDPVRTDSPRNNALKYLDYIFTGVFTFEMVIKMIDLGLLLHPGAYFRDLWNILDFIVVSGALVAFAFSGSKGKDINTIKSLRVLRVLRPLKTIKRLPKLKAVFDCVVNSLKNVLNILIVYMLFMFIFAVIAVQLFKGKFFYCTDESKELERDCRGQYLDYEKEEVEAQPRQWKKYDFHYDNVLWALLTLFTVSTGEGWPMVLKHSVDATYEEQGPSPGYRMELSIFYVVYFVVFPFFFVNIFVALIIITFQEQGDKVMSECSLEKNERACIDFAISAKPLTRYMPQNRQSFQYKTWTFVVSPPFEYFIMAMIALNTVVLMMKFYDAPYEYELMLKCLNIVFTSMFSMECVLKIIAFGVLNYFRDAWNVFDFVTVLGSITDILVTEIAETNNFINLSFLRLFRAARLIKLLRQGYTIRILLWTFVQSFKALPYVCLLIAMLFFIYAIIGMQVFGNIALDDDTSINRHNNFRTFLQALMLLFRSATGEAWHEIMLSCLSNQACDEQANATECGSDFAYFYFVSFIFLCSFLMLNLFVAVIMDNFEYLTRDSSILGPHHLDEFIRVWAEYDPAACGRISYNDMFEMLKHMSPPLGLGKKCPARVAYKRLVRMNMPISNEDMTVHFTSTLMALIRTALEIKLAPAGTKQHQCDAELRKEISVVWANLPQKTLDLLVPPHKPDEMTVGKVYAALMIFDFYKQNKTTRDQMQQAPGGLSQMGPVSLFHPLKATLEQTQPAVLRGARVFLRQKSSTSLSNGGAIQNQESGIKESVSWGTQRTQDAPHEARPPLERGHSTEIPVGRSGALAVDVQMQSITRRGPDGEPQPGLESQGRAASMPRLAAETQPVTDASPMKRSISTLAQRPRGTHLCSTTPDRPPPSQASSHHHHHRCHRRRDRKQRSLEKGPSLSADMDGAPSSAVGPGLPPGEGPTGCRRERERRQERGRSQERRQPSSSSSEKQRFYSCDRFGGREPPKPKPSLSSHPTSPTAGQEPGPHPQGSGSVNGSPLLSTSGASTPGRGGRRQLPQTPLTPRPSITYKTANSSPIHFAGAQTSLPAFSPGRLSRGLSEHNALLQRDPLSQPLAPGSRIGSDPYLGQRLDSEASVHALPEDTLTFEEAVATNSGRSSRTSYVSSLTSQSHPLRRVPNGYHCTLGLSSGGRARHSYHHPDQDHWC
T1 sequence (Q02410 whole entry): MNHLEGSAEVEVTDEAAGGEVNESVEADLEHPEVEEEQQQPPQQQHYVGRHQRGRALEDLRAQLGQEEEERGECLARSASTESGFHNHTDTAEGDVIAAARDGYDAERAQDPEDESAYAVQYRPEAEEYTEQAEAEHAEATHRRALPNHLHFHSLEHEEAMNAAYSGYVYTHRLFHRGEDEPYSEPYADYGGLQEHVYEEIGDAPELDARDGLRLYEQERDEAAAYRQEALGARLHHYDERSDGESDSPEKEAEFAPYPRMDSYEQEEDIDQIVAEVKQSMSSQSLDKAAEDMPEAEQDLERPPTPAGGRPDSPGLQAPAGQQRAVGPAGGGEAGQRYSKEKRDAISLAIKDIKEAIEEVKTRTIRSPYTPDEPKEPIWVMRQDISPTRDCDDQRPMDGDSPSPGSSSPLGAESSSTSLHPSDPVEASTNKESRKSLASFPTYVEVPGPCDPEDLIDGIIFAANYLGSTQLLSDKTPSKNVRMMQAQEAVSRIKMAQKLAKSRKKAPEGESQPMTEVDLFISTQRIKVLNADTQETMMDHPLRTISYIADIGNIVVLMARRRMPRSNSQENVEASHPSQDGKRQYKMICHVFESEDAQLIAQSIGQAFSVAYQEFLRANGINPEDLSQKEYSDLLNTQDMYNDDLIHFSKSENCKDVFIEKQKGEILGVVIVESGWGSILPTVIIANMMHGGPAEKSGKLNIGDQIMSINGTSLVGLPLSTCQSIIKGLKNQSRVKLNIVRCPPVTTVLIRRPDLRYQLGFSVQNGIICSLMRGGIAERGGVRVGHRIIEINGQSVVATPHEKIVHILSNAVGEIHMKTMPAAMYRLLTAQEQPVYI
Chain of Sphingosine 1-phosphate receptor 2 (O95136 whole entry): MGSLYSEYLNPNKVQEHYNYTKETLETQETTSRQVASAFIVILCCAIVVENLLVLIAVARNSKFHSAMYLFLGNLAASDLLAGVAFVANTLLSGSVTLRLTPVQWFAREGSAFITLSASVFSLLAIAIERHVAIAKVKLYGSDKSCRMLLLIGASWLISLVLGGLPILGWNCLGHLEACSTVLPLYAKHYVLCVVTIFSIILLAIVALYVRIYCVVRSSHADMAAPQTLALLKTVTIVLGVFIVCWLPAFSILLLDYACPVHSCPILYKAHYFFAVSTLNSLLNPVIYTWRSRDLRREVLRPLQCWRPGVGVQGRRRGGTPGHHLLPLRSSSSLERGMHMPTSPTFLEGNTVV
Chain of Lysine-specific demethylase 4C (Q9H3R0 whole entry): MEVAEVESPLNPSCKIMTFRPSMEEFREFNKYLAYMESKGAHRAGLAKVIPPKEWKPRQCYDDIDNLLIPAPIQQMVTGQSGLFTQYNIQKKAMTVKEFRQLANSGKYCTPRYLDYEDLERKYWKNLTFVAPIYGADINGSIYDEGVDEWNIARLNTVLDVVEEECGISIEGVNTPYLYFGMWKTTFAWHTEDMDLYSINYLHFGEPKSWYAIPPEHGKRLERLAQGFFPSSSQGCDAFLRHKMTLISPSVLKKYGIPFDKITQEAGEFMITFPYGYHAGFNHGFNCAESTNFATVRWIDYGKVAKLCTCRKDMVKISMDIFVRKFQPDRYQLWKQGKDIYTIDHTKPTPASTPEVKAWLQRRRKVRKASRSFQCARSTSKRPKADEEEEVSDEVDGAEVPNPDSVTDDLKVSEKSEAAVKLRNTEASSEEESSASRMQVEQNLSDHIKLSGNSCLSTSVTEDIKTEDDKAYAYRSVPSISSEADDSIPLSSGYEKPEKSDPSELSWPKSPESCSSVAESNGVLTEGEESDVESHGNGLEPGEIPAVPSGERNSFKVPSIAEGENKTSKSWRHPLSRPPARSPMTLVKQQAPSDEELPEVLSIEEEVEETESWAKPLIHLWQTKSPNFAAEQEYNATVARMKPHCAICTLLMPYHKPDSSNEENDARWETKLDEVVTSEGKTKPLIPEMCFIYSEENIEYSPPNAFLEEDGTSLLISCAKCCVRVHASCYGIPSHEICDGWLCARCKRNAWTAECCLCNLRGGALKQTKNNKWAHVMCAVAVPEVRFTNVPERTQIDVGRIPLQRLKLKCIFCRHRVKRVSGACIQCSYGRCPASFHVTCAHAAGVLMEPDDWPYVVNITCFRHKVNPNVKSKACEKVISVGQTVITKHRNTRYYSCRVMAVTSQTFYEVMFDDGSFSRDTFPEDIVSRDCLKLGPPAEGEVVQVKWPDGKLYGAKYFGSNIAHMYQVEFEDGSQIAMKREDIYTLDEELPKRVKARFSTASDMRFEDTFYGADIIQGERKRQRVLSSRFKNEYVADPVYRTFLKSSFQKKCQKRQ
Chain of Bcl-2-like protein 1 (Q07817 whole entry): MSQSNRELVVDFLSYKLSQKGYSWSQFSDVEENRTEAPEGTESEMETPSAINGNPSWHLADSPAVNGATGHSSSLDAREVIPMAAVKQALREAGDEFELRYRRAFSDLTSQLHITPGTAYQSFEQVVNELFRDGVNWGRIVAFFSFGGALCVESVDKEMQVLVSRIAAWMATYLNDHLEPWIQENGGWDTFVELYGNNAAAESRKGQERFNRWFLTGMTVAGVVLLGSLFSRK

O=C(CN1C(=O)/C(=C2\SC(=S)N(CCS(=O)(=O)O)C2=O)c2ccccc21)Nc1cccc(Br)c1
IC50 (Bcl-2-like protein 1): > 109 µM (not active) | IC50 [1]: 9.59 µM (active) | IC50 [2]: 4.92 µM (active) | IC50 [3]: 2 µM (active) | IC50 (Genome polyprotein): 21.6 µM (active) | IC50 (Beta-galactosidase): > 66.6 µM (inactive) | AC50 [4]: 12.4 µM (active) | IC50 [5]: 3.65 µM (active) | EC50 (Protein RecA): 7.59 µM (active) | IC50 [6]: > 50 µM (inactive) | IC50 [7]: 30 µM (active)

Oc1cc2c(cc1O)C(c1ccccc1)CNCC2 (stereo not given)
EC50 [8]: 109 µM (active) | AC50 [9]: 5.38 µM (active) | AC50 [10]: 15.2 µM (active) | EC50 [11]: 24 µM (active)

Cc1ccccc1NC(=O)c1ccc(-c2cc(Cl)ccc2Cl)o1
IC50 [12]: > 25 µM (inactive) | IC50 [13]: > 25 µM (inactive) | IC50 [14]: > 25 µM (inactive) | IC50 [15]: > 25 µM (inactive) | IC50 [16]: 0.393 µM (active)

CC1Sc2ccc(S(=O)(=O)N3CCC(C(=O)Nc4ccc(Cl)cc4)CC3)cc2NC1=O (stereo not given)
IC50 (HEK293 [17]): 8.24 µM (active) | AC50 [18]: 3.26 µM (active) | IC50 (HEK293 [19]): 7.68 µM (active) | AC50 [20]: 2.42 µM (active) | IC50 (HEK293 [21]): 3.16 µM (active) | EC50 (HEK293 [22]): 2.15 µM (active) | AC50 (INS1): 4.55 µM (active) | IC50 (HEK293 [23]): 3.93 µM (active) | AC50 [24]: 1.6 µM (active) | IC50 [25]: 3.11 µM (active)
